Data published in ChEMBL document CHEMBL1129145, “Phosphonate-containing analogs of cholesteryl ester as novel inhibitors of cholesteryl ester transfer protein” (Bioorg Med Chem Lett, 1996).

Tests used:
[1] = target: T1, Cholesteryl ester transfer protein (Homo sapiens, UniProt P11597); experiment: Tested for inhibition of [3H]cholesteryl linoleate(CE) transfer from donor HDL to acceptor LDL driven by recombinant human Cholesteryl ester transfer protein; Inactive
T1 sequence (P11597 whole entry): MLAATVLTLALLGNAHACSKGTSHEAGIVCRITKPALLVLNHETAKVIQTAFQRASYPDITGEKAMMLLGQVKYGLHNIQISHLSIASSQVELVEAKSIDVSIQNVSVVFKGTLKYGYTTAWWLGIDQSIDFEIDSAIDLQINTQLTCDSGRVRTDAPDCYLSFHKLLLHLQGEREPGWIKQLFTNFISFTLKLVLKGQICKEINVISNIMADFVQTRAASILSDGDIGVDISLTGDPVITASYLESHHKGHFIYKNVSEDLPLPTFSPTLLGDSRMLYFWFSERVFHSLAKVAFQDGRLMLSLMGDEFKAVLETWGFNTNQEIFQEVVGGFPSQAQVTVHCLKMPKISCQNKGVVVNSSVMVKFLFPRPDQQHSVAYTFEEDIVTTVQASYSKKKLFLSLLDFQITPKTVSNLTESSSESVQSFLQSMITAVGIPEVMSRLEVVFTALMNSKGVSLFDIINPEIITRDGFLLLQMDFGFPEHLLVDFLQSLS

[2] = target: T1, Cholesteryl ester transfer protein; experiment: Tested for inhibition of [3H]cholesteryl linoleate(CE) transfer from donor HDL to acceptor LDL driven by recombinant human Cholesteryl ester transfer protein
[3] = target: T1, Cholesteryl ester transfer protein; experiment: Tested for inhibition of [3H]cholesteryl linoleate(CE) transfer from donor HDL to acceptor LDL driven by recombinant human cholesteryl ester transfer protein; inactive
[4] = target: T2, Cholesteryl ester transfer protein (Homo sapiens) (UniProt P11597); experiment: Tested for inhibition of [3H]cholesteryl linoleate(CE) transfer from donor HDL to acceptor LDL driven by recombinant human cholesteryl ester transfer protein at 30 micro M
T2 sequence (whole entry): T1 sequence (P11597 whole entry)

[5] = target: T2, Cholesteryl ester transfer protein (Homo sapiens); experiment: Tested for inhibition of [3H]cholesteryl linoleate(CE) transfer from donor HDL to acceptor LDL driven by recombinant human Cholesteryl ester transfer protein at 30 micro M
[6] = target: T1, Cholesteryl ester transfer protein; experiment: Tested for inhibition of [3H]cholesteryl linoleate(CE) transfer from donor HDL to acceptor LDL driven by recombinant human cholesteryl ester transfer protein
[7] = target: T1, Cholesteryl ester transfer protein; experiment: Tested for inhibition of [3H]cholesteryl linoleate(CE) transfer from donor HDL to acceptor LDL driven by recombinant human cholesteryl ester transfer protein; Inactive

| SMILES | IC50 [1] | IC50 [2] | other results |
| --- | --- | --- | --- |
| CCCCCC[PH](=O)OCc1ccccc1 (stereo not given) | Not Active |  |  |
| CCCCCCCCCCCCCCP(=O)(O)Oc1ccc2ccccc2c1 |  | 24 µM |  |
| CCCCCCCCCCCCCCCCCC[PH](=O)O[C@H]1CC[C@@]2(C)C(CC[C@H]3[C@@H]4CC[C@H]([C@H](C)CCCC(C)C)[C@@]4(C)CC[C@@H]32)C1 (stereo not given in full) |  |  | IC50 [3]: Not Active |
| CCCCCCCCCCCCCCCCCCP(=O)(O)OC |  |  | inhibition [4]: 46% |
| CCCCCCCCCCCCCCCCCCP(=O)(O)OC1c2ccccc2-c2ccccc21 | Not Active |  |  |
| CCCCCCCCCCCCCCCCCCP(=O)(O)Oc1ccc2c(c1)Cc1ccccc1-2 | Not Active |  |  |
| CCCCCCCCCCCCCCP(=O)(O)OCc1ccccc1 |  | 5 µM |  |
| CCCCCCCCCCCCCCCCCC[PH](=O)OCc1ccccc1 (stereo not given) | Not Active |  |  |
| CCCCCCCCCCCCCc1n[nH]c(=S)n1-c1ccccc1 |  | 1.5 µM |  |
| CCCCCCCCCC[PH](=O)OCc1ccccc1 (stereo not given) | Not Active |  |  |
| CCCCCCCCCCCCCCP(=O)(O)OCc1cccc(Oc2ccccc2)c1 |  | 6 µM |  |
| CCCCCCCCCCCCCCCP(=O)(O)OCc1ccccc1 |  | 4 µM |  |
| CCCCCCCCCCCCCCCCCC[PH](=O)O |  |  | inhibition [5]: 28% |
| CCCCCCCCCCCCCCCCCCP(=O)(O)OCc1ccccc1 |  |  | IC50 [6]: 2 µM |
| CCCCCCCCCCCCCCCCCCP(=O)(O)OCc1cccnc1 | Not Active |  |  |
| CCCCCCCCCCCCCCCCCCP(=O)(OC)OCc1ccccc1 (stereo not given) |  |  | IC50 [7]: Not Active |
| CCCCCCCCCCCCCCCCCCP(=O)(O)O[C@H]1CC[C@@]2(C)C(CC[C@H]3[C@@H]4CC[C@H]([C@H](C)CCCC(C)C)[C@@]4(C)CC[C@@H]32)C1 (stereo not given in full) |  |  | inhibition [5]: 30% |
| CCCCCCCCCCCCCCCCCCP(=O)(O)CCc1ccccc1 |  |  | IC50 [6]: 14 µM |
| CCCCCCCCCCCCCCP(=O)(O)OCc1ccoc1 |  | 15 µM |  |
| CCCCCCCCCCCCCCCCCCP(=O)(O)Oc1cc2ccccc2c2ccccc12 | Not Active |  |  |
